Source: patent US20220089578A1, “COMPOUNDS AS GLP-1R AGONISTS” (Terns Pharmaceuticals, Inc., priority 2020, published 2022)

Target: human GLP-1R (Homo sapiens, UniProt P43220)
Assay: GLP-1R Cell Assay 1: cAMP Hunter CHO-K1 GLP1R Gs cell line, HitHunter cAMP assay
Assay type: cell-based
Details: cAMP Hunter CHO-K1 GLP1R Gs cells, percent activity normalized to Exendin-4
Description: GLP-1R mediated agonist activity was determined using the cAMP Hunter CHO-K1 GLP1R Gs cell line (DiscoverX, cat# 95-0062C2), a stable CHO-K1 derived cell lines overexpressing naturally Gs coupled wild-type human GLP-1R (accession number: NM_002062.3). GLP-1R agonism in this cell line was detected by measuring cellular cAMP levels using the HitHunter cAMP assay kit (cat# 90-0075SM2), a homogenous, gain-of-signal competitive immune assay based on Enzyme Fragment Complementation (EFC) technology. In this system cellular cAMP competes with exogenous labeled cAMP (ED-cAMP) for binding to an anti-cAMP antibody. […] The luminescent signal is directly proportional to the amount of cellular cAMP.
For compound testing, cells were seeded in a total volume of 20 μL in white walled, 384-well microplates and incubated at 37° C. prior to compound testing. Prior to compound addition, cell culture media was removed by aspiration and replaced with 15 pt reagent buffer (2:1 HBSS/10 mM HEPES: cAMP XS+Ab reagent). Compounds were dissolved in DSMO and serially diluted (3-fold) prior to final dilution to 4X in assay buffer. Samples (5 μL) were added to cells and incubated at 37° C. for […] prior to 1 hour incubation with 20 pt cAMP XS+ED/CL lysis reagent and 3 hour incubation with 20 μL cAMP XS+EA reagent at room temperature. Microplates were read on a PerkinElmer Envision instrument. Compound activity was analyzed using CBIS data analysis suite (ChemInnovation). Percent activity was calculated based on duplicate assay runs and normalized to the positive control Exendin-4, a GLP-1R peptide agonist, using the following formula: […]
The effective compound concentration resulting in 50% response (EC50) was determined by non-linear regression analysis of dose-response curves.

Chain of human GLP-1R (P43220 24-463): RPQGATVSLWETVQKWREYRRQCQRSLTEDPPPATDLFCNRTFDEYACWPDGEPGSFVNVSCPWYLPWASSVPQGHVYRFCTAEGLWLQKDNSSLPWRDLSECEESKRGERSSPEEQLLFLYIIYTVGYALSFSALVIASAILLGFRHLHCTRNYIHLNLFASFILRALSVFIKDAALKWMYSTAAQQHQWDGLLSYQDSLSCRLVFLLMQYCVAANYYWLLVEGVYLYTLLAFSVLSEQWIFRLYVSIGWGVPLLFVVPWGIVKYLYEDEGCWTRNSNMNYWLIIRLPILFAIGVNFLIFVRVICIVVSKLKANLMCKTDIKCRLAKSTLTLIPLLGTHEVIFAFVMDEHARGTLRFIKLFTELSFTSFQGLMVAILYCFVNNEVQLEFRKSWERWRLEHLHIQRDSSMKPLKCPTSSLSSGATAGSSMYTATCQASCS

EC50 (Table 3) [nM]	EC50 (Table 2) [nM]	Compound
	> 500	N#Cc1ccc2c(c1)CCN(c1ccn(C3CCN(Cc4nc5ccc(C(=O)O)cc5n4C[C@@H]4CCO4)CC3)n1)C2 [Compound 105, (S)-2-((4-(3-(6-cyano-3,4-dihydroisoquinolin-2(1H)-yl)-1H-pyrazol-1-yl)piperidin-1-yl)methyl)-1-(oxetan-2-ylmethyl)-1H-benzo[d]imidazole-6-carboxylic acid]
> 500		N#Cc1ccc(N2CCc3ccc(N4CCN(Cc5nc6ccc(C(=O)O)cc6n5C[C@@H]5CCO5)CC4)nc3C2)c(F)c1 [Compound 144, (S)-2-((4-(7-(4-cyano-2-fluorophenyl)-5,6,7,8-tetrahydro-1,7-naphthyridin-2-yl)piperazin-1-yl)methyl)-1-(oxetan-2-ylmethyl)-1H-benzo[d]imidazole-6-carboxylic acid]
	0.17	N#Cc1ccc(COc2cccc(N3CCN(Cc4nc5ccc(C(=O)O)cc5n4CC4CCS4(=O)=O)CC3)n2)c(F)c1 (single isomer, unassigned) [Compound 140-P2]
	117	N#Cc1ccc2c(c1)CN(c1cccc(N3CCN(Cc4nc5ccc(C(=O)O)cc5n4C[C@@H]4CCO4)CC3)n1)CC2 [Compound 77, (S)-2-((4-(6-(7-cyano-3,4-dihydroisoquinolin-2(1H)-yl)pyridin-2-yl)piperazin-1-yl)methyl)-1-(oxetan-2-ylmethyl)-1H-benzo[d]imidazole-6-carboxylic acid]
	1.19	O=C(O)c1ccc2nc(CN3CCN(c4cccc(OCc5ccc6ccccc6c5)n4)CC3)n(C[C@@H]3CCO3)c2c1 [Compound 70, (S)-2-((4-(6-(naphthalen-2-ylmethoxy)pyridin-2-yl)piperazin-1-yl)methyl)-1-(oxetan-2-ylmethyl)-1H-benzo[d]imidazole-6-carboxylic acid]
	> 500	N#Cc1ccc(COc2cccc(C3CCN([C@H]4CCn5c4nc4ccc(C(=O)O)cc45)CC3)n2)c(F)c1 (single isomer, unassigned) [Compound 6-P2]
	0.0329	CCn1cncc1Cn1c(CN2CCC(c3cccc(OCc4nc5ccccc5s4)n3)CC2)nc2ccc(C(=O)O)cc21 [Compound 125, 2-((4-(6-(benzo[d]thiazol-2-ylmethoxy)pyridin-2-yl)piperidin-1-yl)methyl)-1-((1-ethyl-1H-imidazol-5-yl)methyl)-1H-benzo[d]imidazole-6-carboxylic acid]
	28.7	O=C(O)c1ccc2nc(CN3CCC(n4ccc(OCc5nc6ccccc6s5)n4)CC3)n(C[C@@H]3CCO3)c2c1 [Compound 101, (S)-2-((4-(3-(benzo[d]thiazol-2-ylmethoxy)-1H-pyrazol-1-yl)piperidin-1-yl)methyl)-1-(oxetan-2-ylmethyl)-1H-benzo[d]imidazole-6-carboxylic acid]
	4.27	C[C@@H](Oc1cccc(N2CCN(Cc3nc4ccc(C(=O)O)cc4n3C[C@@H]3CCO3)CC2)n1)c1nc2ccccc2s1 [Compound 116, 2-((4-(6-((R)-1-(benzo[d]thiazol-2-yl)ethoxy)pyridin-2-yl)piperazin-1-yl)methyl)-1-(((S)-oxetan-2-yl)methyl)-1H-benzo[d]imidazole-6-carboxylic acid]
	0.571	N#Cc1ccc(COc2cccc(N3CCN(Cc4nc5ccc(C(=O)O)cc5n4C[C@@H]4CCS4(=O)=O)CC3)n2)c(F)c1 (single isomer, unassigned) [Compound 140-P1]
> 500		O=C(O)c1ccc2nc(CN3CCN(c4cccc5c4CCN(c4ccccc4)C5)CC3)n(C[C@@H]3CCO3)c2c1 [Compound 155, (S)-1-(oxetan-2-ylmethyl)-2-((4-(2-phenyl-1,2,3,4-tetrahydroisoquinolin-5-yl)piperazin-1-yl)methyl)-1H-benzo[d]imidazole-6-carboxylic acid]
	8.18	N#Cc1ccc2c(c1)CCN(c1cccc(N3CCN(Cc4nc5ccc(C(=O)O)cc5n4C[C@@H]4CCO4)CC3)n1)C2 [Compound 60, (S)-2-((4-(6-(6-cyano-3,4-dihydroisoquinolin-2(1H)-yl)pyridin-2-yl)piperazin-1-yl)methyl)-1-(oxetan-2-ylmethyl)-1H-benzo[d]imidazole-6-carboxylic acid]
	16.1	N#Cc1ccc(Cn2ccc3ccc(N4CCN(Cc5nc6ccc(C(=O)O)cc6n5C[C@@H]5CCO5)CC4)nc32)c(F)c1 [Compound 29, (S)-2-((4-(1-(4-cyano-2-fluorobenzyl)-1H-pyrrolo[2,3-b]pyridin-6-yl)piperazin-1-yl)methyl)-1-(oxetan-2-ylmethyl)-1H-benzo[d]imidazole-6-carboxylic acid]
	5.11	Cc1cn(C2CCN(Cc3nc4ccc(C(=O)O)cc4n3C[C@@H]3CCO3)CC2)nc1OCc1ccc(C#N)cc1F [Compound 114]
	> 500	N#Cc1ccc(COc2cccc(C3CCN([C@@H]4CCCCn5c4nc4ccc(C(=O)O)cc45)CC3)n2)c(F)c1 [Compound 90, (R)-6-(4-(6-((4-cyano-2-fluorobenzyl)oxy)pyridin-2-yl)piperidin-1-yl)-7,8,9,10-tetrahydro-6H-benzo[4,5]imidazo[1,2-a]azepine-2-carboxylic acid]
	2.6	N#Cc1ccc2sc(COc3cccc(N4CCN(Cc5nc6ccc(C(=O)O)cc6n5C[C@@H]5CCO5)CC4)n3)nc2c1 [Compound 129, (S)-2-((4-(6-((5-cyanobenzo[d]thiazol-2-yl)methoxy)pyridin-2-yl)piperazin-1-yl)methyl)-1-(oxetan-2-ylmethyl)-1H-benzo[d]imidazole-6-carboxylic acid]
	206	N#Cc1cccc2c1CCN(c1cccc(N3CCN(Cc4nc5ccc(C(=O)O)cc5n4C[C@@H]4CCO4)CC3)n1)CC2 [Compound 79, (S)-2-((4-(6-(6-cyano-1,2,4,5-tetrahydro-3H-benzo[d]azepin-3-yl)pyridin-2-yl)piperazin-1-yl)methyl)-1-(oxetan-2-ylmethyl)-1H-benzo[d]imidazole-6-carboxylic acid]
	3.28	O=C(O)c1ccc2nc(CN3CCN(c4cccc(OCc5ccccn5)n4)CC3)n(C[C@@H]3CCO3)c2c1 [Compound 40, (S)-1-(oxetan-2-ylmethyl)-2-((4-(6-(pyridin-2-ylmethoxy)pyridin-2-yl)piperazin-1-yl)methyl)-1H-benzo[d]imidazole-6-carboxylic acid]
	36.8	N#Cc1ccc(COc2nn(C3CCN(Cc4nc5ccc(C(=O)O)cc5n4C[C@@H]4CCO4)CC3)cc2C#N)c(F)c1 [Compound 111, (S)-2-((4-(4-cyano-3-((4-cyano-2-fluorobenzyl)oxy)-1H-pyrazol-1-yl)piperidin-1-yl)methyl)-1-(oxetan-2-ylmethyl)-1H-benzo[d]imidazole-6-carboxylic acid]
	350	Cc1cn(C2CCN(Cc3nc4ccc(C(=O)O)cc4n3C[C@@H]3CCO3)CC2)nc1OCc1ccccc1 [Compound 24, (S)-2-((4-(3-(benzyloxy)-4-methyl-1H-pyrazol-1-yl)piperidin-1-yl)methyl)-1-(oxetan-2-ylmethyl)-1H-benzo[d]imidazole-6-carboxylic acid]
	42.5	O=C(O)c1ccc2nc(CN3CCN(c4cccc(OCC5CCCCC5)n4)CC3)n(C[C@@H]3CCO3)c2c1 [Compound 1, (S)-2-((4-(6-(cyclohexylmethoxy)pyridin-2-yl)piperazin-1-yl)methyl)-1-(oxetan-2-ylmethyl)-1H-benzo[d]imidazole-6-carboxylic acid]
> 500		N#Cc1ccc([C@@H]2CCc3c(cccc3N3CCN(Cc4nc5ccc(C(=O)O)cc5n4C[C@@H]4CCO4)CC3)O2)c(F)c1 (single isomer, unassigned) [Compound 151-P2]
	5.19	N#Cc1ccc(COc2cccc(C3CCN([C@H]4COCCn5c4nc4ccc(C(=O)O)cc45)CC3)n2)c(F)c1 (single isomer, unassigned) [Compound 7-P1]
	2.24	O=C(O)c1ccc2nc(CN3CCN(c4cccc(OCc5nc6cccnc6s5)n4)CC3)n(C[C@@H]3CCO3)c2c1 [Compound 122, (S)-1-(oxetan-2-ylmethyl)-2-((4-(6-(thiazolo[5,4-b]pyridin-2-ylmethoxy)pyridin-2-yl)piperazin-1-yl)methyl)-1H-benzo[d]imidazole-6-carboxylic acid]

Compound	EC50 (Table 3) [nM]	EC50 (Table 2) [nM]
CCn1ccnc1Cn1c(CN2CC[C@]3(c4cccc(N5CCc6cc(C#N)cc(F)c6C5)n4)C[C@@H]3C2)nc2ccc(C(=O)O)cc21 [Compound 163-P2, 2-(((1S,6R)-6-(6-(6-cyano-8-fluoro-3,4-dihydroisoquinolin-2(1H)-yl)pyridin-2-yl)-3-azabicyclo[4.1.0]heptan-3-yl)methyl)-1-((1-ethyl-1H-imidazol-2-yl)methyl)-1H-benzo[d]imidazole-6-carboxylic acid]	0.414	
CCn1cncc1Cn1c(CN2CCC3(c4cccc5c4OC(C)(c4ccc(Cl)cc4F)O5)CC3C2)nc2ccc(C(=O)O)cc21 (centres unmarked) [Compound 138, 2-((6-(2-(4-chloro-2-fluorophenyl)-2-methylbenzo[d][1,3]dioxol-4-yl)-3-azabicyclo[4.1.0]heptan-3-yl)methyl)-1-((1-ethyl-1H-imidazol-5-yl)methyl)-1H-benzo[d]imidazole-6-carboxylic acid]		0.108
